Measurements published in patent US6706289B2, “Methods and compositions for enhanced delivery of bioactive molecules” (priority 2000, dated 2004).
Read-outs that look alike come from different tables or passages of the source.

How the values were obtained:
[1] = Mean particle size of microparticles estimated from SEM; format: physicochemical
[2] = test system: normal rats; experiment: Hypoglycemic effect: blood glucose levels after subcutaneous administration; format: in vivo
Procedure: PEG-Insulin PLGA microspheres and an equivalent dose of free insulin were administered subcutaneously to normal rats. Blood was drawn periodically and anticoagulated. Blood glucose levels were measured by standard tests.

[3] = format: physicochemical
Procedure: (§1) Core loading measurement of the microspheres was done by dissolving 10 mg of microspheres in 50% acetonitrile followed by centrifugation to pellet the insoluble polymer. Aliquots were analyzed by RP-HPLC and compared to representative standards prepared in 50% acetonitrile. […] The suspensions were vortexed and incubated at 37° C. After 1 hour, aliquots were removed, filtered and analyzed for the amount released by RP-HPLC.

[4] = Initial release at 1 h, in vitro dissolution of microparticles; format: physicochemical; details: Monophase microparticles; PBS (50 mM, pH 7.2), 0.02% Tween 20, 25% EtOH, 37° C.
Procedure: as §1

[5] = Double-emulsion (w1/o/w2) PLGA microparticles

Compound | size range of resulting microspheres ([1]; PLGA microspheres (w/o/w), collected on 25 micron sieve) | PS—Mean Particle Size (estimated from SEM) [1, 5] | PS—Mean Particle Size (estimated from SEM) ([1]; Monophase PLGA microparticles) | % BGL (glucose normalized to a percentage of basal levels) ([2]; Time 0 hr) [%] | % BGL (glucose normalized to a percentage of basal levels) ([2]; Time 1 hr) [%] | % BGL (glucose normalized to a percentage of basal levels) ([2]; Time 2 hr) [%] | % BGL (glucose normalized to a percentage of basal levels) ([2]; Time 4 hr) [%] | % BGL (glucose normalized to a percentage of basal levels) ([2]; Time 6 hr) [%] | % BGL (glucose normalized to a percentage of basal levels) ([2]; Time 8 hr) [%] | % BGL (glucose normalized to a percentage of basal levels) ([2]; Time 12 hr) [%] | CL—Coreload (wt % of active in microparticle as isolated) [3, 5] [%] | CL—Coreload (wt % of active in microparticle as isolated) ([3]; Monophase PLGA microparticles) [%] | IR—Initial Release at 1 h from in vitro dissolution [4] [%] | EE—Encapsulation Efficiency (% of active encapsulated in process) [3, 5] [%] | EE—Encapsulation Efficiency (% of active encapsulated in process) ([3]; Monophase PLGA microparticles) [%]
pegylated GM-CSF: GM-CSF conjugated to tresyl-monomethoxy-polyethylene glycol (MW=5000 daltons); paper example | 25-200 μm |  |  |  |  |  |  |  |  |  |  |  |  |  | 
PEG-Insulin: Human insulin covalently modified with polyethylene glycol, mPEG(5000)-SPA; PLGA microparticles of Examples 15 and 17 |  | 50-250 μm | 50-100 μm | 100 | 111.1 | 86.5 | 97 | 98.5 | 82 | 88.8 |  |  |  |  | 
Insulin: recombinant human insulin; PLGA microparticles of Examples 14 and 16 |  | 100-350 μm | 30-100 μm |  |  |  |  |  |  |  | 0.23 | 0.6 |  |  | 
C[C@@H](NC(=O)[C@@H](N)Cc1ccc(O)cc1)C(=O)NCC(=O)N[C@@H](Cc1ccccc1)C(=O)NNC(=O)[C@H](Cc1ccccc1)NC(=O)CNC(=O)[C@@H](C)NC(=O)[C@@H](N)Cc1ccc(O)cc1 [Biphalin] |  | 50-250 μm | 20-100 μm |  |  |  |  |  |  |  | 0.24 | 0.36 | 49.4 | 14.28 | 3.64
